Measurements as given in ChEMBL document CHEMBL1201862, “PubChem BioAssay data set” (2004).
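Cultured in 96-well plates, cells were exposed to test compound for 48 hours across five concentrations. The concentration for 50% growth inhibition is given as GI50.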 Active and inactive are the calls of the source. Rule as the data show it: active = GI50 up to about 1.1 µM and inactive = higher.

What was measured:
Test in all cases: NCI anticancer screen, dose series, 48 h
[1] = tested on: OVCAR-8
[2] = tested on: NCI-H460
[3] = tested on: OVCAR-3
[4] = tested on: SK-MEL-28
[5] = tested on: HCT-15
[6] = tested on: T47D
[7] = tested on: DU-145
[8] = tested on: SW-620
[9] = tested on: SNB-75
[10] = tested on: KM12
[11] = tested on: SF-539
[12] = tested on: U-251
[13] = tested on: NCI/ADR-RES
[14] = tested on: UO-31
[15] = tested on: OVCAR-4
[16] = tested on: SN12C
[17] = tested on: M14
[18] = tested on: TK-10
[19] = tested on: SK-MEL-2
[20] = tested on: HL-60

Structure (SMILES) | GI50 [1] | GI50 [2] | GI50 [3] | GI50 [4] | GI50 [5] [µM] | GI50 [6] | GI50 [7] | GI50 [8] | GI50 [9] | GI50 [10] | GI50 [11] | GI50 [12] | GI50 [13] | GI50 [14] | GI50 [15] | GI50 [16] | GI50 [17] | GI50 [18] | GI50 [19] | GI50 [20]
CC(C)C(C/C=C1\CC(CO)(COC(=O)C(C)(C)C)OC1=O)C(C)C (configuration not stated) | 14.8 µM (inactive) | 5.57 µM (inactive) | 12.6 µM (inactive) | 13.2 µM (inactive) | 13.4 | 15.1 µM (inactive) | 4.65 µM (inactive) | 4.48 µM (inactive) | 1.84 µM (inactive) | 12.7 µM (inactive) | 7.93 µM (inactive) | 10.7 µM (inactive) | 13.6 µM (inactive) | 5.09 µM (inactive) | 16.3 µM (inactive) | 5.69 µM (inactive) | 13.9 µM (inactive) | 7.23 µM (inactive) | 20.6 µM (inactive) | –
Cc1cc(C)nc(NC(=O)COc2ccc(Cl)cc2)c1 | > 100 µM (inactive) | > 100 µM (inactive) | > 100 µM (inactive) | > 100 µM (inactive) | > 100 | 48.9 µM (inactive) | > 100 µM (inactive) | > 100 µM (inactive) | > 100 µM (inactive) | > 100 µM (inactive) | > 100 µM (inactive) | > 100 µM (inactive) | 66.4 µM (inactive) | – | > 100 µM (inactive) | > 100 µM (inactive) | > 100 µM (inactive) | > 100 µM (inactive) | > 100 µM (inactive) | –
Cc1cc(N(CCC#N)S(=O)(=O)c2ccccc2)ccc1/C=N/c1ccc(C(=O)O)cc1 | 7.71 µM (inactive) | 19.1 µM (inactive) | 10.1 µM (inactive) | 15.3 µM (inactive) | 7.53 | > 100 µM (inactive) | > 100 µM (inactive) | 7.43 µM (inactive) | 14 µM (inactive) | 20.4 µM (inactive) | 15.2 µM (inactive) | 21.3 µM (inactive) | – | 11.1 µM (inactive) | 5.62 µM (inactive) | 6.21 µM (inactive) | 9.77 µM (inactive) | 8.73 µM (inactive) | 6.7 µM (inactive) | 5.21 µM (inactive)
CCOC(=O)c1nc2ccccc2nc1NCc1cc(OC)c(OC)c(OC)c1 | 58.1 µM (inactive) | 28.8 µM (inactive) | 75.5 µM (inactive) | 58.3 µM (inactive) | 30.3 | 35.5 µM (inactive) | > 100 µM (inactive) | 42.2 µM (inactive) | 89.5 µM (inactive) | 34.4 µM (inactive) | > 100 µM (inactive) | 42.1 µM (inactive) | 15.1 µM (inactive) | 24.6 µM (inactive) | 29.6 µM (inactive) | 27.4 µM (inactive) | – | > 100 µM (inactive) | – | 33.3 µM (inactive)
S=C1c2ccc(Cl)cc2-n2cnnc2C2CSCN12 (configuration not stated) | > 100 µM (inactive) | > 100 µM (inactive) | > 100 µM (inactive) | > 100 µM (inactive) | > 100 | > 100 µM (inactive) | > 100 µM (inactive) | > 100 µM (inactive) | > 100 µM (inactive) | > 100 µM (inactive) | – | > 100 µM (inactive) | > 100 µM (inactive) | > 100 µM (inactive) | > 100 µM (inactive) | > 100 µM (inactive) | > 100 µM (inactive) | > 100 µM (inactive) | > 100 µM (inactive) | –
CCOC(=O)c1cn2c(n1)sc1cc(F)ccc12 | > 100 µM (inactive) | > 100 µM (inactive) | > 100 µM (inactive) | > 100 µM (inactive) | > 100 | > 100 µM (inactive) | > 100 µM (inactive) | > 100 µM (inactive) | 58.5 µM (inactive) | 62.8 µM (inactive) | 99.5 µM (inactive) | 77.6 µM (inactive) | > 100 µM (inactive) | > 100 µM (inactive) | > 100 µM (inactive) | > 100 µM (inactive) | 64.4 µM (inactive) | > 100 µM (inactive) | > 100 µM (inactive) | –
CC(=O)Oc1cc2c(c3ncccc13)OC(C)(C)C2 | 14.2 µM (inactive) | 8.71 µM (inactive) | 11.5 µM (inactive) | 15.2 µM (inactive) | 11.8 | 17.1 µM (inactive) | 15.1 µM (inactive) | 13.3 µM (inactive) | 2.06 µM (inactive) | 13.4 µM (inactive) | 12.1 µM (inactive) | 12.4 µM (inactive) | 2.95 µM (inactive) | > 100 µM (inactive) | 12.1 µM (inactive) | 12.2 µM (inactive) | 12.8 µM (inactive) | 12.8 µM (inactive) | 17.6 µM (inactive) | –
O=c1c2cccnc2cc(-c2ccccc2)n1CCO | > 100 µM (inactive) | > 100 µM (inactive) | > 100 µM (inactive) | > 100 µM (inactive) | > 100 | > 100 µM (inactive) | > 100 µM (inactive) | > 100 µM (inactive) | > 100 µM (inactive) | > 100 µM (inactive) | – | > 100 µM (inactive) | > 100 µM (inactive) | > 100 µM (inactive) | > 100 µM (inactive) | > 100 µM (inactive) | > 100 µM (inactive) | > 100 µM (inactive) | > 100 µM (inactive) | > 100 µM (inactive)
COC(=O)c1c(C)cccc1/C=C1/Cc2c(C)cccc2C1=O | > 100 µM (inactive) | 67.9 µM (inactive) | > 100 µM (inactive) | > 100 µM (inactive) | > 100 | 50.8 µM (inactive) | > 100 µM (inactive) | > 100 µM (inactive) | > 100 µM (inactive) | > 100 µM (inactive) | > 100 µM (inactive) | 90.6 µM (inactive) | > 100 µM (inactive) | > 100 µM (inactive) | > 100 µM (inactive) | > 100 µM (inactive) | – | > 100 µM (inactive) | – | > 100 µM (inactive)
CNC(=O)Nc1nc2cc([N+](=O)[O-])ccc2[nH]1 | > 100 µM (inactive) | 7.55 µM (inactive) | > 100 µM (inactive) | > 100 µM (inactive) | > 100 | > 100 µM (inactive) | > 100 µM (inactive) | > 100 µM (inactive) | – | > 100 µM (inactive) | > 100 µM (inactive) | > 100 µM (inactive) | > 100 µM (inactive) | > 100 µM (inactive) | > 100 µM (inactive) | > 100 µM (inactive) | > 100 µM (inactive) | > 100 µM (inactive) | 21.5 µM (inactive) | 49 µM (inactive)
CCOC(=S)SSSC(=S)OCC | 13.8 µM (inactive) | 30.7 µM (inactive) | 26.4 µM (inactive) | > 100 µM (inactive) | 19.5 | 4.22 µM (inactive) | 21 µM (inactive) | 32.5 µM (inactive) | 28.2 µM (inactive) | 41.4 µM (inactive) | 67.1 µM (inactive) | 31.6 µM (inactive) | 58.1 µM (inactive) | – | – | 21.6 µM (inactive) | 27 µM (inactive) | > 100 µM (inactive) | – | 76.6 µM (inactive)
CCCCN1C(=O)CC2[C@@H]3CCc4cc(OC(C)=O)ccc4C3CC[C@]2(C)C1=O (some centres not stated) | > 10 µM (inactive) | > 10 µM (inactive) | > 10 µM (inactive) | > 10 µM (inactive) | > 10 | > 10 µM (inactive) | > 10 µM (inactive) | > 10 µM (inactive) | – | > 10 µM (inactive) | > 10 µM (inactive) | > 10 µM (inactive) | > 10 µM (inactive) | > 10 µM (inactive) | > 10 µM (inactive) | > 10 µM (inactive) | > 10 µM (inactive) | > 10 µM (inactive) | > 10 µM (inactive) | 9.42 µM (inactive)
CN(C)CCCN1C(=S)N(CCCN(C)C)c2c3ccccc3nc3c([N+](=O)[O-])ccc1c23 | 5.31 µM (inactive) | 3.46 µM (inactive) | 6.21 µM (inactive) | 13.6 µM (inactive) | 5.09 | 15 µM (inactive) | 6.44 µM (inactive) | 3.05 µM (inactive) | 7.46 µM (inactive) | 3.3 µM (inactive) | 5.04 µM (inactive) | 6.87 µM (inactive) | 6.95 µM (inactive) | 5.66 µM (inactive) | 11.5 µM (inactive) | 4.15 µM (inactive) | 6.27 µM (inactive) | 10 µM (inactive) | 12.5 µM (inactive) | –
O=C1/C(=C\c2ccc(O)cc2)CCC/C1=C/c1ccc(Cl)c(Cl)c1 | – | – | 3.67 µM (inactive) | 4.1 µM (inactive) | 2.96 | 11.5 µM (inactive) | 3.19 µM (inactive) | 3.37 µM (inactive) | 2.72 µM (inactive) | 1.7 µM (inactive) | – | 4.36 µM (inactive) | 2.03 µM (inactive) | 2.75 µM (inactive) | 2.32 µM (inactive) | 2.73 µM (inactive) | 2.13 µM (inactive) | 2.98 µM (inactive) | 18.6 µM (inactive) | 1.96 µM (inactive)
SC1=NC2=C(CSC/C2=C\c2ccccc2)C(c2ccccc2)N1 (configuration not stated) | 42.2 µM (inactive) | 33 µM (inactive) | > 100 µM (inactive) | > 100 µM (inactive) | 41.7 | 56.4 µM (inactive) | 95.1 µM (inactive) | 48.3 µM (inactive) | – | 41 µM (inactive) | 76.6 µM (inactive) | 35 µM (inactive) | 47.5 µM (inactive) | 33.8 µM (inactive) | > 100 µM (inactive) | 38.1 µM (inactive) | 54.1 µM (inactive) | 61.8 µM (inactive) | 49.3 µM (inactive) | 15.2 µM (inactive)
